Data as given in US20240300987A1, “TRAP1 INHIBITOR AND USE THEREOF” (SMARTIN BIO INC., priority 2021, published 2024).

Assays:
[1] = biological target: T1, human full-length TRAP1 protein (Homo sapiens, UniProt Q12931); assay: Fluorescence polarization (FP) analysis using SB-TM2 probe (client-binding site); settings: for IC50: FP analysis using SB-TM2; for Activity compared to that of SMX: TRAP1 binding, relative to SMX of the same table
T1 construct: containing human full-length TRAP1 protein (400 nM); hexahistidine tag followed by TEV protease cleavage site (N, cleaved yes); made in house; host or cells: E. coli BL21 (DE3)
T1 sequence (Q12931 60-704): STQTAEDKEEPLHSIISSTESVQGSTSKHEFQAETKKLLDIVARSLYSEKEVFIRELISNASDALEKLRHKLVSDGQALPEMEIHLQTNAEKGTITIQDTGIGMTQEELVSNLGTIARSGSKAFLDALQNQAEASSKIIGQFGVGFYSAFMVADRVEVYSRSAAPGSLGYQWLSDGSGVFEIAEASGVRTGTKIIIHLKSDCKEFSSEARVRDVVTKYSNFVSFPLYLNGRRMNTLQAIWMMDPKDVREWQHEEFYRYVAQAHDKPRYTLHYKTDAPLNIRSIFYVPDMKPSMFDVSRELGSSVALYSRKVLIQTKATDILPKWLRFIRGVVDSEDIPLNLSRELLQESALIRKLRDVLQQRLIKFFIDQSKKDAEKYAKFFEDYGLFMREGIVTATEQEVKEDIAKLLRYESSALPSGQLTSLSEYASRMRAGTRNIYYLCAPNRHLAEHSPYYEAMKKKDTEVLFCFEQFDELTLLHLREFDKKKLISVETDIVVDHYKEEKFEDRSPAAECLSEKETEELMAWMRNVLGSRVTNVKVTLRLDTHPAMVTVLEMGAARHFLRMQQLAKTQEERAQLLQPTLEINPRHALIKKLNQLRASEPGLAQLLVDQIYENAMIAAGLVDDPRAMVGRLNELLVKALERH
Procedure: The substance to be analyzed (at a final volume of 100 μL) was added to FP buffer ([…], 2.7 mM KCl, 4.3 mM Na2HPO4, 1.4 mM KH2PO4 (pH 7.3), 1 mM DTT, 2 mM MgCl2, and 0.1 mg/mL BSA) containing human full-length TRAP1 protein (400 nM) and SB-TM2 probe (100 nM) and then reacted at room temperature for 1 hour (96-well plate). Using a SYNERGY NEO microplate reader, FP was measured at an excitation wavelength set to 440 nm and an emission wavelength set to 500 nm.

HIF1α = assay: Drug activity assay using MIO-M1 HRE/GFP cell line under hypoxia; type: cell-based; settings: for IC50: MIO-M1, 24 h, HIF1α inhibitory activity in MIO-M1 cells, 1% O2 24 hours; for Activity compared to that of SMX: HIF1α inhibition, relative to SMX of the same table
Procedure: After transfection (jetPRIME kit) of MIO-M1 Müller cells with 5HRE/GFP plasmid (Addgene, #46926), the cells transfected with the plasmid were selected using 1 mg/ml of G418 (Neomycin), a selectable marker. A stable cell line was constructed by selecting cells, growing in a colony form, from single cells. The prepared MIO-M1-HRE/GFP stable cell line was dispensed into a 96-well plate and treated with drugs at different concentrations the next day. After being exposed to a hypoxic environment (1% O2) for 24 hours, the GFP (Ex/Em: 488/507) fluorescence signal was measured using a SYNERGY NEO microplate reader (BioTek Instrument). The relative fluorescence value was calculated on the basis of 100% of the negative control group.

[2] = Table 4, other synthetic compounds
[3] = Table 9, other synthetic compounds
[4] = Table 3, other synthetic compounds
[5] = Table 8, other synthetic compounds
[6] = Table 2, antioxidant-TPP conjugates
[7] = Table 7, TPP-antioxidant conjugates

SMILES	IC50 [1, 2] [nM]	IC50 (HIF1α; [3]) [nM]	IC50 [1, 4] [nM]	IC50 (HIF1α; [5]) [nM]	Activity compared to that of SMX (HIF1α; Table 9)	Activity compared to that of SMX (HIF1α; Table 8)	further results
CC1=C(CCCCCCCCCC[P+](c2ccccc2)(c2ccccc2)c2ccccc2)C(=O)c2ccccc2C1=O [SB-K001, (10-(3-Methyl-1,4-dioxo-1,4-dihydronaphthalen-2-yl)decyl)triphenylphosphonium]	166 ± 23	55.5 ± 3.3	–	–	5.03	–	Activity compared to that of SMX ([1]; Table 4): 2.45
COC1=C(OC)C(=O)C(CCCCCCCCCC[P+](c2ccccc2)(c2ccccc2)c2ccccc2)=C(C)C1=O [SMX, (10-(4,5-Dimethoxy-2-methyl-3,6-dioxocyclohexadien-1-yl)decyl)triphenylphosphonium, reference compound]	406 ± 38.9	279 ± 17	791 ± 51.2	514 ± 55.2	1	1	IC50 ([1]; Table 1, alkyl-TPPs): 623 ± 37.5 nM; Activity compared to that of SMX ([1]; Table 1): 1; IC50 [1, 6]: 824 ± 51.2 nM; Activity compared to that of SMX ([1]; Table 2): 1; Activity compared to that of SMX ([1]; Table 3): 1; Activity compared to that of SMX ([1]; Table 4): 1; IC50 (HIF1α; Table 6, alkyl-TPPs): 468 ± 15.1 nM; IC50 (HIF1α; [7]): 327 ± 22.9 nM; Activity compared to that of SMX (HIF1α; Table 6): 1; Activity compared to that of SMX (HIF1α; Table 7): 1
CCCCCCCCCC[P+](c1ccccc1)(c1ccccc1)c1ccccc1 [TPP-10, Decyltriphenylphosphonium]	–	–	–	–	–	–	IC50 ([1]; Table 1, alkyl-TPPs): 693 ± 57.8 nM; Activity compared to that of SMX ([1]; Table 1): 0.90; IC50 (HIF1α; Table 6, alkyl-TPPs): 314 ± 57.8 nM; Activity compared to that of SMX (HIF1α; Table 6): 1.49
CC1=C(C)C(=O)C(CCCCCCCCCC[P+](c2ccccc2)(c2ccccc2)c2ccccc2)=CC1=O [SkQ1, (10-(4,5-Dimethyl-3,6-dioxocyclohexa-1,4-diene-1-yl)decyl)triphenylphosphonium, reference compound]	–	–	–	–	–	–	IC50 [1, 6]: 696 ± 55.4 nM; IC50 (HIF1α; [7]): 183 ± 9.1 nM; Activity compared to that of SMX (HIF1α; Table 7): 1.79
c1ccc(CCCCCCCCCC[P+](c2ccccc2)(c2ccccc2)c2ccccc2)cc1 [SB-B001, Triphenyl(10-phenyldecyl)phosphonium]	2970 ± 1050	94.7 ± 13.2	–	–	2.95	–	Activity compared to that of SMX ([1]; Table 4): 0.14
CC1(C)CC(NC(=O)C[P+](c2ccccc2)(c2ccccc2)c2ccccc2)CC(C)(C)N1[O] [Mito-TEMPO, reference compound]	–	–	–	–	–	–	TRAP1 binding capacity (competitive binding with SB-TM2, CBS of TRAP1) ([1]; result in words): do not exhibit TRAP1 binding capacity
c1ccc([P+](CCCCCCCCCCC2CCCCC2)(c2ccccc2)c2ccccc2)cc1 [SB-B002, (10-Cyclohexyldecyl)triphenylphosphonium chloride]	–	22.3 ± 1	–	–	12.51	–	–

Further lines, with some results ahead:

IC50 [1, 2] [nM]	IC50 (HIF1α; [3]) [nM]	IC50 [1, 4] [nM]	IC50 (HIF1α; [5]) [nM]	SMILES	Activity compared to that of SMX (HIF1α; Table 9)	Activity compared to that of SMX (HIF1α; Table 8)	further results
–	–	909 ± 136	191 ± 23.6	COc1c(O)c(C)c(CCCCCCCCCC[P+](c2ccccc2)(c2ccccc2)c2ccccc2)c(Br)c1OC [SB-U009, (10-(2-Bromo-5-hydroxy-3,4-dimethoxy-6-methylphenyl)decyl)triphenylphosphonium]	–	2.69	Activity compared to that of SMX ([1]; Table 3): 0.8701
–	–	385 ± 83.5	131 ± 9.1	COc1c(Br)c(C)c(CCCCCCCCCC[P+](c2ccccc2)(c2ccccc2)c2ccccc2)c(OC)c1OC [SB-U005, (10-(3-Bromo-4,5,6-trimethoxy-2-methylphenyl)decyl)triphenylphosphonium]	–	3.92	–
805 ± 99.4	69.4 ± 3.1	–	–	COc1c(C)c(CCCCCCCCCC[P+](c2ccccc2)(c2ccccc2)c2ccccc2)c(OC)c(OC)c1OC [SB-U014, Triphenyl(10-(2,3,4,5-tetramethoxy-6-methylphenyl)decyl)phosphonium]	4.02	–	–
–	–	601 ± 90.6	177 ± 8.8	COc1c(C)c(CCCCCCCCCC[P+](c2ccccc2)(c2ccccc2)c2ccccc2)c(Br)c(OC)c1OC [SB-U012, (10-(2-Bromo-3,4,5-trimethoxy-6-methylphenyl)decyl)triphenylphosphonium]	–	2.90	Activity compared to that of SMX ([1]; Table 3): 1.315
